In ChEMBL document CHEMBL5604062, “ASAP - ZIKV NS2B-NS3 protease fluorescence dose response” (2024):
pIC50: −log10 of the molar value. “And” between values parts separate entries of the source, which are not always exact repeats. Equal entries are not always repeated.

Each compound was assayed against Nonstructural protein 3 (Zika virus, UniProt A0A024AXB9) (assay: Functional biochemical assay to identify treatments for viral infectious disease that targets Zika NS2B-NS3 protease. Utilizing a direct enzyme activity measurement method, reading the fluorescence intensity is used to characterize the relative potency of inhibitors as IC50.).
Chain of Nonstructural protein 3 (A0A024AXB9 whole entry): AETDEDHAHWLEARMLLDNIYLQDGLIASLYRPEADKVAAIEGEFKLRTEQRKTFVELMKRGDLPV
Set-up: species or system PRVABC59

Compound | pIC50
Cc1nc(C2CC2)[nH]c1C(=O)Nc1cc(-c2cccnc2)ccn1 | < 4.60
NCc1cccc(CNC(=O)[C@H]2[C@H]3CCCCC[C@H]3[C@H]2NC(=O)OCc2ccccc2)c1 | 4.91 and 4.22 and 4.57
Cc1cc(C(=O)Nc2ccc3c(c2)CNC3)c2cnn(C)c2n1 | 5.25
Cc1c(C(=O)Nc2cc(C(=O)N[C@H]3CCOC3)ccn2)cc(C2CC2)n1C | < 4.60
CCCN(C)C(=O)c1cc(Cl)ccc1NS(=O)(=O)c1ccc(Oc2ccccc2Cl)cc1 | < 4.00
CN(C)Cc1ccc(C(=O)Nc2cc(Cl)cc(C(=O)NC(C)(C)CO)c2)[nH]1 | < 4.00
O=C(Nc1ccc2c(c1)CNC2)c1cc(F)cc2[nH]c(CC[C@H]3CCCOC3)nc12 | 6.87
C[C@H]1CN(C(=O)c2cccc3c(CN)cccc23)CCC12CCNCC2 | < 4.00
NCc1cccc(NC(=O)c2cc(Cl)cc(NC(=O)NCc3ccccc3)c2)c1 | 5.68
NCc1cccc(NC(=O)C[C@H](NC(=O)OCc2ccccc2)c2ccc(OC(F)(F)F)cc2)c1 | 4.47 and 4.40
CCn1c(=O)c(N2CC[C@H](NC(=O)NC3CC3)C2)nc2ccccc21 | < 4.00
Cn1ccc(-c2n[nH]cc2CN2CCC(c3nc4ccccc4s3)CC2)n1 | < 4.00
CC(=O)N[C@H](C(=O)N[C@H]1C(=O)O[C@H]1C)c1ccc(OCc2ccccc2)cc1 | < 4.00
O=C(Nc1cccc2c1CNC2)c1cc(Cl)cc2[nH]ncc12 | < 4.60
O=C(Nc1cc2c(c(-c3ccnnc3)c1)CNC2)c1cc(Cl)cc2[nH]ncc12 | 7.21 and 7.46
NCc1csc2cc(C(=O)Nc3cc([C@H]4CCOC4)ccn3)ccc12 | < 4.60
C[C@H](NC(=O)c1cc(Cl)cc(NC(=O)OCc2ccccc2)c1)C(=O)O | < 4.00
CCn1cc(C(=O)N2CCN(C)CC2)nc(N2CC[C@@H](CO)C2)c1=O | < 4.00
CC(C)NC(=O)[C@H](Nc1ccc2c(c1)CNC2)c1cc(Cl)cc2[nH]c(-c3ccccc3)nc12 | 7.38 and 7.72 and 7.27 and 7.48 and 7.80 and 7.16
NCCNS(=O)(=O)c1ccc(NC(=O)c2cc(Cl)cc(NC(=O)OCc3ccccc3)c2)cc1 | 4.96
N#Cc1ccc(S(=O)(=O)Nc2ccc(Oc3ccccc3Cl)cc2)c(C(=O)O)c1 | < 4.00
Cc1c(C(=O)Nc2cc(SC3COC3)ccn2)cc(C2CC2)n1C | < 4.60
O=C(O)c1cccc(NC(=O)c2cc(Cl)cc3[nH]ncc23)c1 | < 4.00
O=C(Nc1cc(Cl)cc(C(=O)Nc2ccc([C@H]3CCCNC3)cc2)c1)OCc1ccccc1 | 5.12
C[C@@H](Cc1c[nH]c2ccccc12)N1CC[C@H](c2c[nH]c3ccccc23)C1 | < 4.00
O=C(Nc1ccc2c(c1)CNC2)c1cncc(N2CCOCC2)c1 | 4.18

More lines, now with the values ahead:

pIC50 | Compound
< 4.00 | CC(C)(C#N)c1cc(C(=O)Nc2cccc(CN)c2)cc(C(F)(F)F)c1
< 4.60 | O=C(Nc1cc(-c2cccnc2)ccn1)c1nnc(C2CC2)s1
< 4.60 | N#C[C@H](Nc1ccc2c(c1)CNC2)c1ccnc(C(F)(F)F)c1
< 4.00 | Cc1cc(C(=O)Nc2cccc(CN)c2)c2sc(N)nc2n1
< 4.60 | O=C(Nc1ccc2c(c1)CNC2)N1CCC[C@H]1c1cc(C(F)(F)F)no1
< 4.60 | CCCN1C(=O)[C@](Nc2ccc3c(c2)CNC3)(C(=O)NC)c2ccccc21
4.22 | Cc1c(NC(=O)OCc2ccccc2)cc(C(F)(F)F)cc1C(=O)Nc1cccc(CN)c1
7.57 and 7.82 | O=C(Nc1cc(Br)c2c(c1)CNC2)c1cc(F)cc2[nH]ncc12
< 4.00 | c1coc(CSCc2nc(-c3nc[nH]n3)no2)c1
5.58 | N#C[C@H](Nc1ccc2c(c1)CNC2)c1cccc2[nH]ncc12
4.43 | CC(C)(C)Cn1c(=O)[nH]c2cccc(C(=O)Nc3cccc(CN)c3)c21
< 4.60 | O=C1Cc2c(cccc2C(=O)N[C@H]2COc3cc(Br)cnc32)N1
< 4.00 | Cn1cc([C@@H]2C[C@H](C(=O)Nc3cccc(CN)c3)CC(=O)N2)cn1
5.39 and 5.41 | NCCc1cccc(NC(=O)c2cc(Cl)cc(NC(=O)OCc3ccccc3)c2)c1
5.21 | CCNC(=O)Nc1cc(Cl)cc(C(=O)Nc2cc(CCCN)ccc2F)c1
4.19 | NCc1cccc(NC(=O)[C@@H](NC(=O)OCc2ccccc2)c2ccc(OCc3nc4c(s3)COCC4)cc2)c1
